Measured values taken from EP2682119A1, “Aromatic N-heterocycle derivatives for use as medicine” (Université Libre de Bruxelles, priority 2012, dated 2014).
Where a name gives a salt, the structure may show the parent alone. Read-outs that look alike come from different tables or passages of the source.

Tests used:
recombinant MPO = biological target: T1, recombinant MPO (Homo sapiens, UniProt P05164); test: Myeloperoxidase inhibition (MPO) assay, taurine chloramine production by the MPO/H2O2/Cl- system; assay type: biochemical; settings: for inhibition properties against myeloperoxidase enzyme: compared with the corresponding compound wherein the fluor atom is at position 5 on the indole ring
T1 construct: made in house
T1 sequence (P05164 49-745): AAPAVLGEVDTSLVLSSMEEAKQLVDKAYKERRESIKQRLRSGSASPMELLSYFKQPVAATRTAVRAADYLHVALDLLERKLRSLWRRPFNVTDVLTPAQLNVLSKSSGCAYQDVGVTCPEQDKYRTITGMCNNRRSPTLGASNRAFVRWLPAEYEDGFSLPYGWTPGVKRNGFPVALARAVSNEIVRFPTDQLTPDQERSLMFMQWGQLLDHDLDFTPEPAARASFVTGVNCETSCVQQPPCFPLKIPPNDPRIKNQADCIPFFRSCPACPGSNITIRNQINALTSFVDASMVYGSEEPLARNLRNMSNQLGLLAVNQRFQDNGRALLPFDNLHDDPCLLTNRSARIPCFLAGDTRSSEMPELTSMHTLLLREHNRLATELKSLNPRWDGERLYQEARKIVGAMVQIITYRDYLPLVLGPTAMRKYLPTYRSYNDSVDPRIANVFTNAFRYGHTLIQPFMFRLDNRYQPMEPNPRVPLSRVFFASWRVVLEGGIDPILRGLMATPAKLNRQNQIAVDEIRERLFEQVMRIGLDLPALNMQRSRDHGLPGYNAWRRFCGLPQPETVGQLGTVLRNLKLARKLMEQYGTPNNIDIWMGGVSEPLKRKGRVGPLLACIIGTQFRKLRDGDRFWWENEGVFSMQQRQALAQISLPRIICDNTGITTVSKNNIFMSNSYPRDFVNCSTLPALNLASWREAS
Method: Myeloperoxidase inhibition (MPO) assay procedure
The assay was based on the production of taurine chloramine produced by the MPO/H2O2/Cl- system in the presence of a selected inhibitor at defined concentration. The reaction mixture contained the following reagents in a final volume of 200 µL: pH 7.4 phosphate buffer (10 mM PO4^3-/300 mM NaCl), taurine (15 mM), the compound to be tested (up to 20 µM), and the fixed amount of the recombinant MPO (6.6 µL of MPO batch solution diluted 2.5 times, 40 nM). When necessary, the volume was adjusted with water. This mixture was incubated at 37 °C and the reaction initiated with 10.0 µL of H2O2 (100 µM). After 5 min, the reaction was stopped by the addition of 10 µL of catalase (8 U/µL).
(§1) Recombinant MPO was prepared as previously described. Each batch solution is characterized by its protein concentration (mg/mL), its activity (U/mL), and its specific activity (U/mg). The chlorination activity was determined according to Hewson and Hager. […] The different steps were carried out in the dark, and the protein concentration was measured by the Lowry assay for both MPO and LDL.

[1] = biological target: T2, LDL oxidation carried out by MPO (Homo sapiens, UniProt P05164); test: Inhibition of LDL oxidation by MPO, ELISA with Mab AG9; assay type: biochemical
T2 construct: made in house
T2 sequence (P05164 49-745): T1 sequence (P05164 49-745)
Method: Low-density lipoproteins oxidation inhibition
Preparation of the Recombinant Enzyme and of LDL
as §1
Inhibition of LDL Oxidation
LDL oxidation was carried out at 37 °C in a final volume of 500 µL. The reaction mixture contained the following reagents at the final concentrations indicated between brackets: pH 7.2, PBS buffer, MPO (1 µg/mL), LDL (1000 µg/mL), 2 µL 1 N HCl (4 mM), one of the drugs at different concentrations, and H2O2 (100 µM). The reaction was stopped after 5 min by cooling the tubes in ice. The assay was performed as described by Moguilevsky et al. in a NUNC maxisorp plate (VWR, Zaventem, Belgium): 200 ng/well of LDL was coated overnight at 4 °C in a sodium bicarbonate pH 9.8 buffer (100 µL) Afterward, the plate was washed with TBS 80 buffer and then saturated during 1 h at 37 °C with the PBS buffer containing 1% BSA (150 µL/well). […] After incubation for 1 h at 37 °C, the plate was washed four times with the TBS 80 buffer and a 3000 times diluted solution of IgG antimouse alkaline phosphatase (Promega, Leiden, The Netherlands) in the same buffer was added (100 µL/well). The wells were washed again four times and a revelation solution (150 µL/well) containing 5 mg of para-nitrophenyl phosphate in 5 mL of diethanolamine buffer was added for 30 min at room temperature. The reaction was stopped with 60 µL/well of 3 N NaOH solution. […] Results were expressed as IC50.

[2] = biological target: T3, human 5-HT transporter (hSERT) (Homo sapiens, UniProt P31645); test: 5-HT reuptake inhibition, [3H]5-HT uptake in transfected HEK-293 MSR cells; assay type: cell-based; settings: serotonin reuptake inhibition
T3 construct: expressed in transfected cells; host or cells: HEK-293 MSR cells (Invitrogen), plasmid pcDNA3.1-hSERT
T3 sequence (P31645 whole entry): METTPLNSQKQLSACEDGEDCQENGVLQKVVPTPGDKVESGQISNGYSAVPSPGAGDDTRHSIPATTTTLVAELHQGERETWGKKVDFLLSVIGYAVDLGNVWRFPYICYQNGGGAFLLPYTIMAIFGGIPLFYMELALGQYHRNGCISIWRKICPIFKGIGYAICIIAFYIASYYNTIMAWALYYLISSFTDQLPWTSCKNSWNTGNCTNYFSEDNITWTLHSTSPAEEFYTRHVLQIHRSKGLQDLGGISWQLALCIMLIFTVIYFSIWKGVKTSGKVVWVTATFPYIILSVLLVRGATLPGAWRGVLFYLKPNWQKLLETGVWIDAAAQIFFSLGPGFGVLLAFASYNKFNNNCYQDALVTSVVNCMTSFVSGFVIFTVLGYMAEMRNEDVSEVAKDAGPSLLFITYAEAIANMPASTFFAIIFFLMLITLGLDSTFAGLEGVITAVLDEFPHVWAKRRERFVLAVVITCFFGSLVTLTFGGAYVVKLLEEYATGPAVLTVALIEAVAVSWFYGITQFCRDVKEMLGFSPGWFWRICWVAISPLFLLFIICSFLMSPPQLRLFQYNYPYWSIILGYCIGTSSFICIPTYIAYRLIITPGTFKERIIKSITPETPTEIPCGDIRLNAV
Method: Assesment of 5-HT reuptake inhibition.
Inhibition assessment of 5-HT reuptake was performed as follows. The mammalian expression plasmid pcDNA3.1 containing human 5-HT transporter (hSERT) cDNA has been described previously. HEK-293 MSR cells (Invitrogen) were cultured as monolayers in Dulbecco's modified Eagle's medium (BioWhitaker) supplemented with 10% fetal calf serum (Invitrogen), 100 units/mL penicillin, 100 µg/mL streptomycin (BioWhitaker) and 6 µg/mL Geneticin (Invitrogen) at 95% humidity, 5% p(CO2) and 37°C. Cells were detached from the culture flasks by Versene (Invitrogen) and trypsin/EDTA (BioWhitaker) treatment for subculturing or seeding into white TC-microtiter plates (Nunc). Transfection and measurement of [^3H]5-HT (PerkinElmer Life Sciences) uptake was performed as described by Larsen et al. (2004) except that HEK-293 MSR cells (Invitrogen) were used instead of COS-1 cells.

[3] = inhibition of myeloperoxidase enzyme, Table 1, compounds of the invention, read-out: IC50
[4] = inhibition of LDL oxidation, Table 2, read-out: IC50
[5] = Table 3, 3-amidoindole analogues, read-out: MPO IC50
[6] = Table 3, 3-amidoindole analogues, oxidation of LDL, read-out: Mox LDL IC50

Row | Structure (SMILES) | inhibition properties against myeloperoxidase enzyme (recombinant MPO) | IC50 (recombinant MPO; [3]) [nM] | IC50 [1, 4] [nM] | Ki [2] [nM] | IC50 (recombinant MPO; [5]) [nM] | IC50 [1, 6] [nM]
1 | NCCc1c[nH]c2c(F)cccc12.O=C(O)C(=O)O [Compound 26, 3-(2-Aminoethyl)-7-fluoro-1H-indole oxalate] | enhanced inhibition properties | – | – | – | – | –
2 | NCCCc1c[nH]c2c(F)cccc12.O=C(O)C(=O)O [Compound 27, 3-(3-Aminopropyl)-7-fluoro-1H-indole oxalate] | enhanced inhibition properties | – | – | – | – | –
3 | NCCCCc1c[nH]c2c(F)cccc12 [Compound 30, 3-(4-Aminobutyl)-7-fluoro-1H-indole oxalate] | – | 6 | 21 | – | – | –
4 | NCCSCCc1c[nH]c2ccc(F)cc12 [Compound 32, 3-(2-(2-Aminoethylthio)ethyl)-5-fluoro-1H-indole oxalate] | – | 4 | 8 | – | – | –
5 | NCCSCCCc1c[nH]c2ccc(F)cc12 [Compound 33, 3-(3-(2-Aminoethylthio)propyl)-5-fluoro-1H-indole oxalate] | – | – | 21 | – | – | –
6 | N#CSCCCc1c[nH]c2ccc(F)cc12 [Compound 34, 5-Fluoro-3-(3-thiocyanatopropyl) 1H-indole] | – | 5 | 23 | 212 | – | –
7 | CCN(CCc1c[nH]c2ccc(F)cc12)S(C)(=O)=O [Compound 35, 5-Fluoro-3-(2-(N-ethylmethanesulfonamido)ethyl)-1H-indole] | – | 14 | 27 | 174 | – | –
8 | CCN(CCCc1c[nH]c2ccc(F)cc12)S(C)(=O)=O [Compound 36, 5-Fluoro-3-(3-(N-ethylmethanesulfonamido)propyl)-1H-indole] | – | – | 27 | – | – | –
9 | NCCSCCc1c[nH]c2c(F)cccc12 [Compound 43, 3-(2-(2-Aminoethylthio)ethyl)-7-fluoro-1H-indole oxalate] | – | 3 | 6 | 25 | – | –
10 | ONCCCc1c[nH]c2ccc(F)cc12 [Compound 45, 3-(3-N-Hydroxylaminopropyl)-5-fluoro-1H-indole] | – | 11 | 21 | 20 | – | –
11 | NC(=O)CCCc1c[nH]c2c(F)cccc12 [Compound 54, 3-(4-(butylamido))-7-fluoro-1H-indole] | – | – | 24 | – | 26 | 24
12 | NC(=O)CCCc1c[nH]c2ccc(F)cc12 [Compound 56, 3-(4-(Butylamido))-5-fluoro-1H-indole] | – | 18 | 18 | 631 | 18 | 18
13 | NC(=O)CCCCc1c[nH]c2c(F)cccc12 [Compound 57, 3-(5-(pentylamido)) -7-fluoro-1H-indole] | – | – | – | – | 39 | 43
14 | NC(=O)CCCCc1c[nH]c2ccc(F)cc12 [Compound 58, 3-(5-(pentylamido)) -5-fluoro-1H-indole] | – | – | – | – | 35 | 44
15 | CNC(=O)CCCc1c[nH]c2ccc(F)cc12 [Compound 59, 3-(4-(N-methyl, butylamido))-5-fluoro-1H-indole] | – | – | – | – | 40 | 95
